# According to patent US20160115189A1, “PARASITICIDAL COMPOUNDS, METHODS, AND FORMULATIONS” (ELI LILLY AND COMPANY, priority 2013, published 2016):
# Tests used:
# [1] = system: Dermacentor variabilis (American dog tick); test: Assay 4: adult American dog tick infestations on dogs, descending doses; format: in vivo, Dermacentor variabilis on beagle dogs
# Procedure: (§1) The total number of live parasites present on each dog is determined for each interval, and this number is transformed using the natural logarithm transformation plus one (Ln count+1); addition of one to each count served to adjust for counts that are zero. Geometric mean (GM) group tick and flea counts are obtained via back-transformation of group mean transformed counts and subtracting one. The negative control group is used for comparison to treated groups for the calculation of percent efficacy (% reduction in live parasite counts). GM percent efficacy of treatments is calculated using the following formula: […]
# (§2) The therapeutic (knockdown) and residual efficacy of the Example 1 compound, administered via topical spot-on at descending point doses of 30, 20 and 10 mg/kg, is evaluated against adult tick (Dermacentor variabilis (American dog tick) and Rhipicephalus sanguineus (Brown dog tick)) infestations on dogs. Twenty-four (24) beagle dogs are allocated to either an untreated, negative control group or one of three treated groups (n=6 dogs per group). Dogs are infested with approximately 50 unfed, adult R. sanguineus ticks on Days −1, 5, 12, 19 and 28; dogs are concurrently infested with D. variabilis ticks on Day 12 and Day 28. On Day 0, dogs are treated with the Example 1 compound (50 mg/ml of technical active dissolved in a vehicle solution of propylene carbonate, benzyl alcohol, and isopropyl myristate), applied via topical spot-on in a volume so as to achieve point doses of 30, 20 and 10 mg/kg. Tick counts and classification are conducted on Days 3, 7, 14, 21 and 30. GM percent efficacy of treatments against both tick species is calculated using the formula in Assay 3.
# [2] = system: Rhipicephalus sanguineus (Brown dog tick); test: Assay 4: adult brown dog tick infestations on dogs, descending doses; format: in vivo, Rhipicephalus sanguineus on beagle dogs
# Procedure: as §1, §2
# [3] = system: adult brown dog tick (Rhipicephalus sanguineus); test: Assay 3: adult brown dog tick infestations on dogs; format: in vivo, Rhipicephalus sanguineus on beagle dogs; settings: for % Efficacy (GM) / Geometric Mean Group Live Parasite Counts: topical spot-on 30 mg/kg
# Procedure: (§3) The therapeutic (knockdown) and residual efficacy of the Example 1 compound, administered topically at a point dose of 30 mg/kg bodyweight, is evaluated against adult brown dog tick (Rhipicephalus sanguineus) and cat flea (Ctenocephalides felis) infestations on dogs. Based on pre-treatment tick retention rates, eight (8) beagle dogs are allocated to one of two treatment groups (n=4 per group): Untreated control group, and Example 1 compound-treated group. Dogs are infested with approximately 50 unfed, adult ticks one day prior to treatment (approximately 50% male and 50% female ticks). On Day 0, dogs are treated with Example 1 compound (50 mg/ml, dissolved in a vehicle solution of propylene carbonate, benzyl alcohol, and isopropyl myristate), applied via topical spot-on to achieve a point dose of 30 mg/kg. On Day 3 (approximately 72 hours after treatment), ticks are counted and removed from all dogs. To evaluate residual activity, dogs are re-infested with ticks on an approximate weekly basis for at least two weeks and up to 4 weeks, with tick counts (and removal) conducted 48 hours after each infestation. Dogs are infested with approximately 100 unfed, adult fleas at weeks 2 and 3 for both groups, concurrently with tick infestation.
# as §1
# [4] = system: adult brown tick (Rhipicephalus sanguineus); test: Assay 5: adult brown tick infestations on dogs; format: in vivo, Rhipicephalus sanguineus on beagle dogs; settings: 10 mg/kg topical spot-on
# Procedure: as §1
# The therapeutic (knockdown) and residual efficacy of the Example 1-4 compounds, when administered via topical spot-on at 10 mg/kg, is evaluated against adult brown tick (Rhipicephalus sanguine us) infestations on dogs. Twenty (20) beagle dogs are allocated to either an untreated, negative control group or one of four treated groups (n=4 dogs per group). Dogs are infested with approximately 50 unfed, adult R. sanguineus ticks on Days −1, 5, 12, 19 and 28. On Day 0, dogs are treated with Example 1-4 compound formulations (each, 50 mg/ml of technical active dissolved in a vehicle solution of propylene carbonate, benzyl alcohol, and isopropyl myristate), applied via topical spot-on in a volume so as to achieve a point dose of 10 mg/kg. Tick counts and classification are conducted on Days 2, 7, 14, 21 and 30. GM percent efficacy of treatments against ticks is calculated using the formula in Assay 3.
# [5] = Assay 4: tolerability in dogs; format: in vivo, beagle dogs; settings: topical spot-on 30, 20 and 10 mg/kg
# [6] = Assay 3: tolerability in dogs; format: in vivo, beagle dogs; settings: topical spot-on 30 mg/kg
# [7] = system: cat flea (Ctenocephalides felis); test: Assay 3: cat flea infestations on dogs; format: in vivo, Ctenocephalides felis on beagle dogs; settings: for % Efficacy (GM) / Geometric Mean Group Live Parasite Counts: topical spot-on 30 mg/kg
# Procedure: as §3, §1
# [8] = 10 mg/kg topical spot-on, Day 14, Dv
# [9] = 10 mg/kg topical spot-on, Day 30, Dv
# [10] = 20 mg/kg topical spot-on, Day 14, Dv
# [11] = 20 mg/kg topical spot-on, Day 30, Dv
# [12] = 30 mg/kg topical spot-on, Day 14, Dv
# [13] = 30 mg/kg topical spot-on, Day 30, Dv
# [14] = 10 mg/kg topical spot-on, Day 3, Rs
# [15] = 10 mg/kg topical spot-on, Day 7, Rs
# [16] = 10 mg/kg topical spot-on, Day 14, Rs
# [17] = 10 mg/kg topical spot-on, Day 21, Rs
# [18] = 10 mg/kg topical spot-on, Day 30, Rs
# [19] = 20 mg/kg topical spot-on, Day 3, Rs
# [20] = 20 mg/kg topical spot-on, Day 7, Rs
# [21] = 20 mg/kg topical spot-on, Day 14, Rs
# [22] = 20 mg/kg topical spot-on, Day 21, Rs
# [23] = 20 mg/kg topical spot-on, Day 30, Rs
# [24] = 30 mg/kg topical spot-on, Day 3, Rs
# [25] = 30 mg/kg topical spot-on, Day 7, Rs
# [26] = 30 mg/kg topical spot-on, Day 14, Rs
# [27] = 30 mg/kg topical spot-on, Day 21, Rs
# [28] = 30 mg/kg topical spot-on, Day 30, Rs
# [29] = topical 30 mg/kg, through week 4
smiles,measurement,setting,value
"CC[C@H]1CCC[C@H](NC(=O)c2ccco2)[C@@H](C)C(=O)C2=C[C@@H]3[C@@H](C=C[C@@H]4C[C@@H](O[C@@H]5O[C@@H](C)[C@H](OC)C(OC)[C@H]5OC)C[C@@H]34)[C@@H]2CC(=O)O1 (stereo partly drawn) [Example 1, N-((2R,3aS,5aR,5bS,9S,13S,14R,16aS,16bR)-9-ethyl-14-methyl-7,15-dioxo-2-(((2R,3R,5S,6S)-3,4,5-trimethoxy-6-methyltetrahydro-2H-pyran-2-yl)oxy)-2,3,3a,5a,5 b,6,7,9,10,11,12,13,14,15,16a,16b-hexadecahydro-1H-as-indaceno[3,2-d][1]oxacyclododecin-13-yl)furan-2-carboxamide]",% Efficacy (GM),[1]; [8],(99.49) %
same,Geometric Mean Group Live Tick Counts,[1]; [8],0.12
same,% Efficacy (GM),[1]; [9],(95.30) %
same,Geometric Mean Group Live Tick Counts,[1]; [9],1.60
same,% Efficacy (GM),[1]; [10],(97.87) %
same,Geometric Mean Group Live Tick Counts,[1]; [10],0.51
same,% Efficacy (GM),[1]; [11],(97.34) %
same,Geometric Mean Group Live Tick Counts,[1]; [11],0.91
same,% Efficacy (GM),[1]; [12],(98.06) %
same,Geometric Mean Group Live Tick Counts,[1]; [12],0.47
same,% Efficacy (GM),[1]; [13],(97.95) %
same,Geometric Mean Group Live Tick Counts,[1]; [13],0.70
same,Residual efficacy against D. variabilis ticks,"[1]; all doses, both Day 14 and Day 30 intervals",> 95%
same,% Efficacy (GM),[2]; [14],(73.39) %
same,Geometric Mean Group Live Tick Counts,[2]; [14],4.92
same,% Efficacy (GM),[2]; [15],(100) %
same,Geometric Mean Group Live Tick Counts,[2]; [15],0.00
same,% Efficacy (GM),[2]; [16],(97.59) %
same,Geometric Mean Group Live Tick Counts,[2]; [16],0.70
same,% Efficacy (GM),[2]; [17],(96.14) %
same,Geometric Mean Group Live Tick Counts,[2]; [17],0.70
same,% Efficacy (GM),[2]; [18],(90.64) %
same,Geometric Mean Group Live Tick Counts,[2]; [18],1.18
same,% Efficacy (GM),[2]; [19],(84.80) %
same,Geometric Mean Group Live Tick Counts,[2]; [19],2.81
same,% Efficacy (GM),[2]; [20],(100) %
same,Geometric Mean Group Live Tick Counts,[2]; [20],0.00
same,% Efficacy (GM),[2]; [21],(99.58) %
same,Geometric Mean Group Live Tick Counts,[2]; [21],0.12
same,% Efficacy (GM),[2]; [22],(99.32) %
same,Geometric Mean Group Live Tick Counts,[2]; [22],0.12
same,% Efficacy (GM),[2]; [23],(94.12) %
same,Geometric Mean Group Live Tick Counts,[2]; [23],0.74
same,% Efficacy (GM),[2]; [24],(79.13) %
same,Geometric Mean Group Live Tick Counts,[2]; [24],3.86
same,% Efficacy (GM),[2]; [25],(98.92) %
same,Geometric Mean Group Live Tick Counts,[2]; [25],0.12
same,% Efficacy (GM),[2]; [26],(99.10) %
same,Geometric Mean Group Live Tick Counts,[2]; [26],0.26
same,% Efficacy (GM),[2]; [27],(97.55) %
same,Geometric Mean Group Live Tick Counts,[2]; [27],0.44
same,% Efficacy (GM),[2]; [28],(95.94) %
same,Geometric Mean Group Live Tick Counts,[2]; [28],0.51
same,Therapeutic (knockdown) efficacy,"[2]; Day 3, treatments 30, 20 and 10 mg/kg",73-85%
same,Residual efficacy against R. sanguineus,"[2]; through Day 21, all treatments (30, 20, 10 mg/kg)",> 95%
same,Residual efficacy against R. sanguineus,"[2]; through Day 30, 30 mg/kg dose",> 95%
same,residual efficacy against ticks,[3]; [29],> 90%
same,% Efficacy (GM),"[3]; Day 3, Tick",(87.42) %
same,Geometric Mean Group Live Parasite Counts,"[3]; Day 3, Tick",3.95
same,% Efficacy (GM),"[3]; Week 1, Tick",(99.44) %
same,Geometric Mean Group Live Parasite Counts,"[3]; Week 1, Tick",0.19
same,% Efficacy (GM),"[3]; Week 2, Tick",(100) %
same,Geometric Mean Group Live Parasite Counts,"[3]; Week 2, Tick",0.00
same,% Efficacy (GM),"[3]; Week 3, Tick",(100) %
same,Geometric Mean Group Live Parasite Counts,"[3]; Week 3, Tick",0.00
same,% Efficacy (GM),"[3]; Week 4, Tick",(100) %
same,Geometric Mean Group Live Parasite Counts,"[3]; Week 4, Tick",0.00
same,GM percent efficacy,"[4]; Day 2, R. sanguineus",(68.16)
same,Geometric Mean Group Live Tick Counts,"[4]; Day 2, R. sanguineus",10.03
same,GM percent efficacy,"[4]; Day 7, R. sanguineus",(100)
same,Geometric Mean Group Live Tick Counts,"[4]; Day 7, R. sanguineus",0.00
same,GM percent efficacy,"[4]; Day 14, R. sanguineus",(97.41)
same,Geometric Mean Group Live Tick Counts,"[4]; Day 14, R. sanguineus",0.57
same,GM percent efficacy,"[4]; Day 21, R. sanguineus",(95.27)
same,Geometric Mean Group Live Tick Counts,"[4]; Day 21, R. sanguineus",1.59
same,GM percent efficacy,"[4]; Day 30, R. sanguineus",(67.97)
same,Geometric Mean Group Live Tick Counts,"[4]; Day 30, R. sanguineus",8.40
same,tolerability of treatment,[5],well tolerated
same,tolerability of treatment,[6],well tolerated
same,residual efficacy against fleas,[7]; [29],> 90%
same,% Efficacy (GM),"[7]; Week 2, Flea",(91.73) %
same,Geometric Mean Group Live Parasite Counts,"[7]; Week 2, Flea",7.15
same,% Efficacy (GM),"[7]; Week 3, Flea",(91.64) %
same,Geometric Mean Group Live Parasite Counts,"[7]; Week 3, Flea",7.21
